Source: patent US8765748B2, “Indazolyl, benzimidazolyl, benzotriazolyl substituted indolinone derivatives as kinase inhibitors useful in the treatment of cancer” (University Health Network, priority 2007, dated 2014)

What was measured:
Format in all cases: biochemical
Aurora A = target: T1, Aurora A (Homo sapiens, UniProt O14965); assay: Aurora A Inhibition Assay (Z-Lyte); details: for inhibition at 10 µM: 10 μM compound, read-out: Aurora A relative inhibition percentage at a dose of 10 μM; for IC50: 20 μM ATP, 12 nM Aurora A, read-out: Aurora A IC50 Ranges; for inhibition at 1 µM: 1 μM compound, read-out: Aurora A relative inhibition percentage at a dose of 1 μM
T1 construct: purchased Invitrogen PV3612
T1 sequence (O14965 1-403): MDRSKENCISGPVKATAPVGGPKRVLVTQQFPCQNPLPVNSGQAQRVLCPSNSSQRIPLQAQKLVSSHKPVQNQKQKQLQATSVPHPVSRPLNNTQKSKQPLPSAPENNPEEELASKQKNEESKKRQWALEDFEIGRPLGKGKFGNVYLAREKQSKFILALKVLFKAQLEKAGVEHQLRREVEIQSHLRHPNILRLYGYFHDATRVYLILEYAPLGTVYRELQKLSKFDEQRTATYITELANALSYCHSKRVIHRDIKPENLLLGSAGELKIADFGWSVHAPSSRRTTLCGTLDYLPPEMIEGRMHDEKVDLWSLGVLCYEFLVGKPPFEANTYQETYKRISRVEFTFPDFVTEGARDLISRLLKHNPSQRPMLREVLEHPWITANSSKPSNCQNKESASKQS
Description: (§1) Aurora A inhibition was determined using the Z-Lyte assay kit from Invitrogen. The assay was performed using the recommended manufacturer's instructions with 20 μM ATP and 12 nM Aurora A (Invitrogen cat #PV3612). The % inhibition values were determined according to the manufacturer's directions and IC50 values were obtained using a non-linear 4 point logistic curve fit (XLfit4, IDBS)

human PLK4 = target: T2, human PLK4 (Homo sapiens, UniProt O00444); assay: PLK4 Inhibition Assay (indirect ELISA); details: 15 μM ATP, 4 nM GST-PLK4; read-out: PLK4 IC50 Ranges
T2 construct: amino terminal GST fusion of residues 1-391 of human PLK4; made in house; host or cells: E. coli
T2 sequence (O00444 1-391): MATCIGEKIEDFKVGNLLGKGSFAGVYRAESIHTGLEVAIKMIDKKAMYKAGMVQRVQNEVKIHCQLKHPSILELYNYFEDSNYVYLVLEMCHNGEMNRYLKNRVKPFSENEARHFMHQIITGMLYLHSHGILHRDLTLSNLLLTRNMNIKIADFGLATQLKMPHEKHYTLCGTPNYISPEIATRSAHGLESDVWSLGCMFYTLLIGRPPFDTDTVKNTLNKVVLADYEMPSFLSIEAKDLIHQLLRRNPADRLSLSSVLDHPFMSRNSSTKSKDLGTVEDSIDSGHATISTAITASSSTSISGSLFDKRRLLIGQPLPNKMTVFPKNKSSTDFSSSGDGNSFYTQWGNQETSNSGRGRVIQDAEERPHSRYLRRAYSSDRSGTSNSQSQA
Description: The protein was purified from clarified cell extracts after induction at 15° C. overnight using glutathione sepharose, gel permeation chromatography, and ion exchange (Resource Q). The resulting protein was dephosphorylated with lambda phosphatase (NEB cat #P0753), and resolved from the phosphatase using gluthione sepharose. The dephosphorylated GST-PLK4 was stored in aliquots at −80° C. until use. PLK4 activity was measured using an indirect ELISA detection system. […] Compounds were pre-incubated in the presence of enzyme for 15 minutes prior to addition of ATP and the activity remaining quantified using the above described activity assay. […] The IC50 value was determined using a non-linear 4 point logistic curve fit (XLfit4, IDBS) with the formula; (A+(B/(1+((x/C)^D)))), where A=background value, B=range, C=inflection point, D=curve fit parameter.

Aurora B = target: T3, Aurora B (Homo sapiens, UniProt Q96GD4); assay: Aurora B Inhibition Assay (Z-Lyte); details: 128 μM ATP, 28 nM Aurora B; read-out: Aurora B IC50 Ranges
T3 construct: purchased Invitrogen PV3970
Description: as §1, with “Aurora B” for “Aurora A”, “with 128” for “with 20”, “and 28” for “and 12”, “cat #PV3970).” for “cat #PV3612).”

PLK1 = target: T4, PLK1 (Homo sapiens, UniProt P53350); assay: PLK1 Inhibition Assay (Z-Lyte); details: 25 μM ATP, 8 nM PLK1; read-out: PLK1 IC50 Ranges
T4 construct: purchased Invitrogen PV3501
Description: PLK1 inhibition was determined using the Z-Lyte assay kit from Invitrogen (cat #PV3802). […] The % inhibition values were determined according to the manufacturer's directions and IC50 values were obtained using a non-linear 4 point logistic curve fit (XLfit4, IDBS)

T3 sequence (Q96GD4 whole entry): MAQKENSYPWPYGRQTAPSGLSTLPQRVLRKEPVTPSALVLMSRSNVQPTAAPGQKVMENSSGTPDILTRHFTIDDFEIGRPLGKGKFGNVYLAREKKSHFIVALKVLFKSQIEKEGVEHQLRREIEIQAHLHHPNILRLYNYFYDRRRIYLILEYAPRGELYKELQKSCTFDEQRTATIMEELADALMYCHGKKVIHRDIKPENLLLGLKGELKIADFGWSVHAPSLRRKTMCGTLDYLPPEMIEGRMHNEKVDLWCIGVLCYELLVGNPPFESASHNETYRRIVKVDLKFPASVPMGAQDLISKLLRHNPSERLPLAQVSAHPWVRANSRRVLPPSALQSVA
T4 sequence (P53350 whole entry): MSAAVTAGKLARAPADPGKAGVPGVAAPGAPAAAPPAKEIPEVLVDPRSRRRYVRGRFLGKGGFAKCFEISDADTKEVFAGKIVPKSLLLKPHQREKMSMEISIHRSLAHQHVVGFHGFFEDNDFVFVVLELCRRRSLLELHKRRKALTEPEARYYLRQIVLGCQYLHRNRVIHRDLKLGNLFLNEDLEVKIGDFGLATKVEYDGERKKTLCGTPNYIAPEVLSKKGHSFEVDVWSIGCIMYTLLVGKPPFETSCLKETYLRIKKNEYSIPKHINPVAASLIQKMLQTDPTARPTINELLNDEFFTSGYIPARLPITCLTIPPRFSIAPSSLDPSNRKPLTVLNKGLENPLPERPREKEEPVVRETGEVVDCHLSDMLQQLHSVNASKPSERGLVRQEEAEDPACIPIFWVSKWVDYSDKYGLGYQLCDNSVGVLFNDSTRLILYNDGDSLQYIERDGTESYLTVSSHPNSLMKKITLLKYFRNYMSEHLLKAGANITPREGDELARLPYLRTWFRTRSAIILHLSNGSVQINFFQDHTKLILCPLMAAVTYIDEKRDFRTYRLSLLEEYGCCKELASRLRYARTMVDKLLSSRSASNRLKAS

inhibition at 10 µM (Aurora A)	IC50 (human PLK4)	IC50 (Aurora B)	IC50 (Aurora A)	inhibition at 1 µM (Aurora A)	IC50 (PLK1)	Compound
> 50%	< 5 µM	< 5 µM	–	–	–	O=C(O)/C=C/c1n[nH]c2cc(C=C3C(=O)Nc4ncccc43)ccc12 (mixture of isomers) [Example A71, (E)-3-(6-((E & Z)-(2-oxo-1H-pyrrolo[2,3-b]pyridin-3(2H)-ylidene)-methyl)-1H-indazol-3-yl)acrylic acid]
–	< 5 µM	< 5 µM	< 5 µM	–	–	N#Cc1ccc2c(c1)C(=Cc1ccc3c(/C=C/c4ccncc4)n[nH]c3c1)C(=O)N2 (mixture of isomers) [Example A128, (E and Z)-2-oxo-3-((3-((E)-2-(pyridin-4-yl)vinyl)-1H-indazol-6-yl)methylene)indoline-5-carbonitrile]
–	< 5 µM	< 5 µM	< 5 µM	–	–	O=C1Nc2ccc(Cl)nc2C1=Cc1ccc2c(/C=C/c3ccncc3)n[nH]c2c1 (mixture of isomers) [Example A137, (E and Z)-5-chloro-3-((3-((E)-2-(pyridin-4-yl)vinyl)-1H-indazol-6-yl)methylene)-1H-pyrrolo[3,2-b]pyridin-2(3H)-one]
–	< 5 µM	< 5 µM	< 5 µM	–	–	O=C1Nc2ccc(Br)cc2C1=Cc1ccc2c(/C=C/c3cccnc3)n[nH]c2c1 (mixture of isomers) [Example A139, (E and Z)-5-bromo-3-((3-((E)-2-(pyridin-3-yl)vinyl)-1H-indazol-6-yl)methylene)indolin-2-one]
–	< 5 µM	< 5 µM	< 5 µM	–	–	O=C1Nc2ncc(Br)cc2C1=Cc1ccc2c(/C=C/c3cccnc3)n[nH]c2c1 (mixture of isomers) [Example A140, (E and Z)-5-bromo-3-((3-((E)-2-(pyridin-3-yl)vinyl)-1H-indazol-6-yl)methylene)-1H-pyrrolo[2,3-b]pyridin-2(3H)-one]
–	< 5 µM	< 5 µM	–	> 50%	–	COC(=O)c1ccc(/C=C/c2n[nH]c3cc(C=C4C(=O)Nc5ccc(OC)cc54)ccc23)cc1 (mixture of isomers) [Example A142, methyl 4-((E)-2-(6-((E and Z)-(5-methoxy-2-oxoindolin-3-ylidene)methyl)-1H-indazol-3-yl)vinyl)benzoate]
–	< 5 µM	< 5 µM	–	> 50%	–	COC(=O)c1ccc(/C=C/c2n[nH]c3cc(C=C4C(=O)Nc5ncccc54)ccc23)cc1 (mixture of isomers) [Example A143, methyl 4-((E)-2-(6-((E and Z)-(2-oxo-1H-pyrrolo[2,3-b]pyridin-3(2H)-ylidene)methyl)-1H-indazol-3-yl)vinyl)benzoate]
–	< 5 µM	< 5 µM	< 5 µM	–	–	O=C1Nc2ncccc2C1=Cc1ccc2c(/C=C/c3ccc(C(=O)O)cc3)n[nH]c2c1 (mixture of isomers) [Example A146, 4-((E)-2-(6-((E/Z)-(2-oxo-1H-pyrrolo[2,3-b]pyridin-3(2H)-ylidene)methyl)-1H-indazol-3-yl)vinyl)benzoic acid]
–	–	< 5 µM	< 5 µM	–	–	COc1ccc2c(c1)C(=Cc1ccc3c(/C=C/c4ccc(CN(C)C)cc4)n[nH]c3c1)C(=O)N2 (stereo in doubt) [Example A136b, (Z)-3-((3-(4-((dimethylamino)methyl)styryl)-1H-indazol-6-yl)-methylene)-5-methoxyindolin-2-one 2,2,2-trifluoroacetate]
–	< 5 µM	–	–	–	5 to 50 µM	CS(=O)(=O)Nc1ccc2c(c1)/C(=C\c1ccc3nn[nH]c3c1)C(=O)N2 [Example A24, (E)-N-(3-((1H-benzo[d][1,2,3]triazol-5-yl)methylene)-2-oxoindolin-5-yl)methanesulfonamide]
–	< 5 µM	–	–	–	< 5 µM	CS(=O)(=O)Nc1ccc2c(c1)/C(=C\c1ccc3cn[nH]c3c1)C(=O)N2 [Example A25, (E)-N-(3-((1H-indazol-6-yl)methylene)-2-oxoindolin-5-yl)methanesulfonamide]
–	5 to 50 µM	–	–	–	5 to 50 µM	CC(C)NC(=O)Nc1ccc2c(c1)/C(=C\c1ccc3nn[nH]c3c1)C(=O)N2 [Example A27, (E)-1-(3-((1H-benzo[d][1,2,3]triazol-5-yl)methylene)-2-oxoindolin-5-yl)-3-isopropylurea]
–	< 5 µM	–	–	–	> 50 µM	O=C1Nc2cc(-c3cccnc3)ccc2/C1=C\c1ccc2[nH]nnc2c1 [Example A29, (E)-3-((1H-benzo[d][1,2,3]triazol-5-yl)methylene)-6-(pyridin-3-yl)indolin-2-one]
–	5 to 50 µM	–	–	–	> 50 µM	O=C1Nc2cc(-c3cccnc3)ccc2/C1=C\c1ccc2[nH]ncc2c1 [Example A30, (E)-3-((1H-indazol-5-yl)methylene)-6-(pyridin-3-yl)indolin-2-one]
–	5 to 50 µM	–	–	–	> 50 µM	CN1C(=O)/C(=C/c2ccc3nn[nH]c3c2)c2ccccc21 [Example A33, (E)-3-((1H-benzo[d][1.2.3]triazol-5-yl)methylene)-1-methylindolin-2-one]
–	5 to 50 µM	–	–	–	5 to 50 µM	CN1C(=O)/C(=C/c2ccc3cn[nH]c3c2)c2ccccc21 [Example A34, (E)-3-((1H-indazol-6-yl)methylene)-1-methylindolin-2-one]
–	< 5 µM	< 5 µM	< 5 µM	–	–	O=C1Nc2ccc(O)cc2/C1=C\c1ccc2cn[nH]c2c1 [Example A123, (E)-3-((1H-indazol-6-yl)methylene)-5-hydroxyindolin-2-one]
–	< 5 µM	< 5 µM	< 5 µM	–	–	O=C1Nc2ccc(O)cc2/C1=C\c1ccc2c(/C=C/c3ccncc3)n[nH]c2c1 [Example A124, (E)-5-hydroxy-3-((3-((E)-2-(pyridin-4-yl)vinyl)-1H-indazol-6-yl)methylene)indolin-2-one 2,2,2-trifluoroacetate]
> 50%	< 5 µM	< 5 µM	–	–	–	COc1ccc2c(c1)/C(=C\c1ccc3c(/C=C/C(=O)N(C)CCN(C)C)n[nH]c3c1)C(=O)N2 [Example A126, (E)-N-(2-(dimethylamino)ethyl)-3-(6-((E)-(5-methoxy-2-oxoindolin-3-ylidene)methyl)-1H-indazol-3-yl)-N-methylacrylamide 2,2,2-trifluoroacetate]
–	< 5 µM	< 5 µM	< 5 µM	–	–	COc1cc2c(cc1OC)/C(=C\c1ccc3c(/C=C/c4ccncc4)n[nH]c3c1)C(=O)N2 [Example A138, (E)-5,6-dimethoxy-3-((3-((E)-2-(pyridin-4-yl)vinyl)-1H-indazol-6-yl)methylene)indolin-2-one]
–	< 5 µM	< 5 µM	–	> 50%	–	COC(=O)c1ccc(/C=C/c2n[nH]c3cc(/C=C4\C(=O)Nc5ccccc54)ccc23)cc1 [Example A141, methyl 4-((E)-2-(6-((Z)-(2-oxoindolin-3-ylidene)methyl)-1H-indazol-3-yl)vinyl)benzoate]
–	< 5 µM	< 5 µM	< 5 µM	–	–	O=C1Nc2ccccc2/C1=C\c1ccc2c(/C=C/c3ccc(C(=O)O)cc3)n[nH]c2c1 [Example A144, 4-((E)-2-(6-((E)-(2-oxoindolin-3-ylidene)methyl)-1H-indazol-3-yl)vinyl)benzoic acid]
